Source: patent publication US20250352563A1, “Method and Use of Psilocybin in the Prevention and Treatment of Stroke” (Revive Therapeutics Ltd, priority 2022, published 2025)

How the values were obtained:
[1] = system: rat primary cortical neuronal culture; assay: Glutamate neurotoxicity in primary cortical neuronal culture (MAP2 immunocytochemistry)
[2] = system: rat model of stroke (MCAo); conditions: intraperitoneal injection prior to MCAo; cited from earlier work
[3] = system: stroke rats (MCAo); assay: Pre-stroke i.c.v. treatment, brain infarction by TTC staining in MCAo stroke rats; type: in vivo, rat; conditions: i.c.v. pretreatment, day 2
[4] = system: stroke rats (MCAo); assay: Pre-stroke i.c.v. treatment, neurological and locomotor tests in MCAo stroke rats; conditions: D2
Procedure: Psilocybin or vehicle was given before or after the MCAo. For the pretreatment, animals were anesthetized. Psilocybin (100 μM×20 μL, n=7) or vehicle (saline, 20 μl, n=7) was administered intracerebroventricularly (i.c.v., AP, −0.8 mm; LV, −1.5 mm; DV, −3.5 mm) at 15 min before MCAo through a Hamilton microsyringe. The speed of injection was controlled by a syringe pump (Micro 4, WPI, Sarasota, FL).
The right middle cerebral artery (MCA) was transiently occluded (MCAo) as we previously described (33). In brief, the bilateral common carotids were clamped with nontraumatic arterial clips. The right MCA was ligated with a 10-O suture to generate focal infarction in the cerebral cortex. The ligature and clips were removed after 60 min ischemia to generate reperfusion injury. Core body temperature was monitored with a thermistor probe and maintained at 37° C. with a heating pad during anesthesia. After recovery from anesthesia, body temperature was maintained at 37° C. using a temperature-controlled incubator.
(§1) Locomotion was measured using an infrared activity monitor (Accuscan, Columbus, OH) as we previously described (19, 37). Rats were individually placed in a 3D infrared behavior chamber (42×42×21 cm) for 60 min. Four parameters were recorded: (a) horizontal activity (HACTV, the total number of beam interruptions that occurred in the horizontal sensors), (b) total distance traveled (TOTDIST, the distance, in centimeters, traveled by the animals), and (c) No. of movements (MOVNO), (d) horizontal movements time (MOVTIME).
A total of 14 adult rats were used for this analysis. Psilocybin (100 μM×20 μL, n=7) or vehicle (saline, 20 μL, n=7) was delivered to the lateral ventricle (i.c.v., coordinates: AP:0.8 mm, Lat:1.5 mm, DV −3.5 mm) at 10-15 min prior to the a 60-min MCAo. Behavioral tests were conducted two days (or D2) after MCAo (FIG. 2A). […] Locomotoractivity was examined in infra-red activity chambers for one hour.

[5] = system: stroke rats (MCAo); assay: Post-stroke i.p. treatment, neurological and locomotor tests in MCAo stroke rats; conditions: 1 mg/kg/d i.p. days 3 to 7 after MCAo
Procedure: In the posttreatment group, Psilocybin (1 mg/kg/day, n=7) or vehicle (n=6) was administered i.p. from day 3 to day 7.
(b) Neurological deficits were scored by the Bederson's neurological test (35, 36). In a postural reflex test, rats were examined for the degree of abnormal posture when suspended by 20-30 cm above the testing table. They were scored according to the following criteria. • 0 Rats extend both forelimbs straight. No observable deficit. • 1 Rats keep the one forelimb to the breast and extend the other forelimb straight. • 2 Rats show decreased resistance to lateral push in addition to behavior in score 1 without circling. • 3 Rats twist the upper half of their body in addition to behavior in score 2.
as §1
Psilocybin (1 mg/kg/d, n=7) or vehicle (n=6) was delivered systemically (i.p.) from days 3 to 7 after the MCAo. Neurological and locomotor tests were examined on day 9 (FIG. 4A).

[6] = non-lesioned brain; cited from earlier work
[7] = system: MAP2, synaptophysin (SYP), IBA1, and BDNF expression; assay: Post-stroke i.p. treatment, qRT-PCR of lesioned cerebral cortex; type: in vivo, rat; conditions: 1 mg/kg/d i.p. days 3-7, cortex day 9
[8] = system: primary cortical neuronal culture; assay: ANA12 antagonism of psilocybin-mediated protection in primary cortical neuronal culture; conditions: Glu 100 μM + Psi 10 μM + ANA 10 μM; p<0.05, one-way ANOVA
Source text: A selective BDNF antagonist ANA12 was included on D10 along with psilocybin and glutamate (see timeline in FIG. 6C).

[9] = system: stroke rats (MCAo); assay: ANA12 antagonism of psilocybin-mediated neuroprotection in MCAo stroke rats; type: in vivo, rat
[10] = stroke reduced expression, p<0.05
[11] = ANA12 100 μM×20 μL/d intranasally days 0 and 1, Psilocybin i.c.v. prior to MCAo

In the case of `N[C@@H](CCC(=O)O)C(=O)O` [Glutamate], the “MAP2 immunoreactivity (MAP2-ir)” value ([1]; Glutamate 100 μM added on DIV10, fixed DIV12, p<0.001) is reported as “significantly reduced”.
For `CN(C)CCc1c[nH]c2ccccc12` [DMT, N,N-dimethyltryptamine], the BDNF expression [2] is given as “increased”, the brain infarction [2] is given as “reduced” and the brain inflammation [2] is given as “reduced”. The staircase behavior [2] was “improved”.
In the case of `CN(C)CCc1c[nH]c2cccc(OP(=O)(O)O)c12` [Psilocybin, 4-phosphoryloxy-N,N-dimethyltryptamine], the “area of infarction in each 2-mm slice” value ([3]; p<0.001, two-way ANOVA, difference mainly on rostral slices) is reported as “significantly lowered infarction”, the “infarct volume (TTC staining)” value ([3]; typical TTC staining FIG. 3A) is reported as “reduced the infarct volume” and the body asymmetry ([4]; 100 μM×20 μL i.c.v. 10-15 min prior to MCAo, p=0.00345) is reported as “significantly decreased”. For the same molecule, the “horizontal activity (HACTV)” value ([4]; 100 μM×20 μL i.c.v. prior to MCAo, one hour, p=0.0246) was “significantly increased”, the “movement time (MOVTIME)” value ([4]; 100 μM×20 μL i.c.v. prior to MCAo, p=0.00351) was “significantly increased” and the “total distance traveled (TOTODIST)” value ([4]; 100 μM×20 μL i.c.v. prior to MCAo, p=0.0103) was “significantly increased”. The “movement number (MOVNO)” value ([4]; 100 μM×20 μL i.c.v. prior to MCAo, p=0.0479) was “significantly increased”, the horizontal activity ([5]; day 9, p=0.011) was “increased” and the total distance traveled ([5]; day 9, p=0.018) was “increased”. The movement number ([5]; day 9, p=0.023) was “increased”, the movement time ([5]; day 9, p=0.034) was “increased” and the body asymmetry ([5]; day 9, p=0.0445) was “significantly reduced”. The “Bederson's neurological test” value ([5]; tested day 9, p=0.0421) was “significantly reduced”, the “crossing of the blood-brain barrier” value [6] was “inefficient to freely cross the blood-brain barrier” and the “Glu-mediated neuronal loss (MAP2-ir)” value ([1]; Glu 100 μM, Psi 10 μM, photomicrographs FIG. 1A) was “antagonized”. The “expression of BDNF in the lesioned brain (qRTPCR)” value ([7]; p=0.01, stroke vs. stroke+PSI) was “significantly upregulated”, the “expression of MAP2 in the stroke brain (qRTPCR)” value [7, 10] was “significantly normalized” and the “expression of synaptophysin (SYP) in the stroke brain (qRTPCR)” value [7, 10] was “significantly normalized”. For the same molecule, the “expression of IBA1 in the stroke brain (qRTPCR)” value ([7]; stroke upregulated expression, p<0.05) was “significantly normalized”.
With `O=C(Nc1ccccc1C(=O)NC1CCCCNC1=O)c1cc2ccccc2s1` (centres unmarked) [ANA12] the “psilocybin-mediated improvement in MAP2-ir” value [8] was “significantly antagonized”, the “Psilocybin-mediated improvement in horizontal activity” value [9, 11] was “significantly antagonized” and the “Psilocybin-mediated improvement in total distance traveled” value [9, 11] was “significantly antagonized”. For the same molecule, the “psilocybin-mediated improvement in neurological behavior” value [9, 11] was “significantly antagonized” and the “psilocybin-mediated reduction in brain infarction” value ([9]; ANA12 100 μM×20 μL/d intranasally days 0 and 1 after MCAo, Psilocybin i.c.v. 100 μM×20 μl 15 min prior) was “significantly antagonized”.
